The EC50 is the midpoint of the concentration-response curve. Broadly, the IC50 is the point on the concentration scale where inhibition reaches its midpoint.

In PubChem BioAssay AID179 (DTP/NCI, 2004) one finds EC50, IC50 and outcome data, which are given here for 70 compounds.

This test has as its system CEM cells HIV-1 protection, formazan growth assay. As to the kind of experiment: NCI AIDS Antiviral Assay. To be noted: for IC50: measured here: growth of uninfected CEM cells. The gist of the method:
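Five concentrations of each compound were applied to infected and uninfected human CEM cells. Protection from HIV-1 was judged from growth measured with a soluble formazan assay.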

“And” between values parts separate entries of the source, which are not always exact repeats. Equal values may be shown once. The source made the active and inactive calls.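 The calls were made as follows: active = compounds giving half or more protection of infected cells from virus-caused growth loss, again on retest; inactive = the rest.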 Where a SMILES comes first, the peptide text is derived from it. [ ]: non-standard residue; d: D form. The star is where a group is joined. AllylGly = C=CC[CH](N)C(=O)O; Boc = CC(C)(C)OC(=O)*; OBn = c1ccc(CO*)cc1; OtBu = CC(C)(C)O* Where only a bound is given, the exact number is not on record here.

For the compound `Cc1ccc2c3c(cnc2n1)C(=O)OCCN3C`, the EC50 was greater than 200 µM and the concentration for half-maximal inhibition (IC50) is greater than 200 µM.
Consider `COc1ccc(C(F)(F)F)cc1NC(=O)O/N=C(/Cl)C(C)C`, for which the EC50 was greater than 20 µM and the half-maximal inhibitory concentration (IC50) was 3.72 µM.
In the case of `Cc1cc(Cl)cc2c1NC(=O)C2(O)CC(=O)c1ccc(Br)cc1` (configuration not stated), the EC50 was greater than 91.2 µM and the IC50 came to 70.8 µM.
Consider `CC(=N/NC(=S)N1CCCCC1)/C(=N\NC(=S)N1CCCCC1)c1ccccc1`, for which the EC50 is greater than 200 µM and the IC50 is 3.55 µM.
For `CN(C)/C=C/c1ccncc1` the same measures were greater than 200 µM and 145 µM.
As for `CC(C)CC(NC(=O)OC(C)(C)C)C(=O)NC(CC(=O)OCc1ccccc1)C(N)=O` (stereo not drawn) (Boc-Leu-Asp(OBn)-NH2; configuration not given here), the EC50 is greater than 200 µM and the 50% inhibitory concentration (IC50) was greater than 200 µM.
As for `COc1cc(C(c2c(O)c3ccccc3oc2=O)c2c(O)c3ccccc3oc2=O)ccc1O`, the EC50 was greater than 200 µM and the IC50 is 56.2 µM.
Turning to `C=CC(C)(C)n1cc(C2=C3OC(=O)C(c4cn(C(C)(C)C=C)c5ccccc45)=C3OC2=O)c2ccccc21`, the EC50 was greater than 200 µM and the half-inhibitory concentration (IC50) was greater than 200 µM.
On to `CCOC(=O)/C(=C/c1cccc(Cl)c1)C(=O)c1ccccc1`, for which the EC50 is greater than 12 µM and the half-maximal inhibitory concentration (IC50) is greater than 12 µM.
Regarding `CC(=O)Nc1ccc(S(=O)(=O)Nc2ccc(S(=O)(=O)c3ccc(NC(=O)c4ccccc4SSc4ccccc4C(=O)Nc4ccc(S(=O)(=O)c5ccc(NS(=O)(=O)c6ccc(NC(C)=O)cc6)cc5)cc4)cc3)cc2)cc1`, the EC50 is 24 µM and the IC50 was greater than 100 µM.
As for `CC(=O)/C(N=Nc1ccc(-n2c(C)nc3ccc(Br)cc3c2=O)cc1)=C(/C)O`, the EC50 was greater than 200 µM and the half-inhibitory concentration (IC50) was 148 µM.
Regarding `Nc1nc(N)c(N=O)c(=O)[nH]1.[Cd]`, the EC50 is greater than 200 µM and the 50% inhibitory concentration (IC50) was determined as 1.74 µM.
As to `CC(C)=CCN1Cc2cccc3[nH]c(=S)n(c23)C[C@@H]1C`, the concentration for a half-maximal effect (EC50) is 0.0302 µM and the IC50 stood at 1.74 µM.
Turning to `CC/C=N\N=C(N)N`, the EC50 is greater than 200 µM and the IC50 was 30.2 µM.
On the same counts, the results for `O=c1[nH]c2nccn2c(Cl)c1Br` are greater than 200 µM and 33.9 µM.
Take `O=C(O)CC1(CC(=O)Nc2nccs2)CCCCC1`: the EC50 was greater than 126 µM and the IC50 is greater than 126 µM.
On to `O=c1c2ccccc2c(=O)c2c1c1c(=O)c3ccccc3c(=O)c1c1c(=O)c3ccccc3c(=O)c21`, for which the EC50 is greater than 200 µM and the concentration for half-maximal inhibition (IC50) is greater than 200 µM.
In the case of `COc1ccc(C2c3c(-c4ccccc4)nn(-c4ccccc4)c3Oc3ncn(N)c(=N)c32)cc1OC` (configuration not stated), the EC50 is greater than 200 µM and the IC50 turned out to be 30.2 µM.
As to `Cc1cc2nc(=O)cc(CCl)n2c(=O)n1C(=O)C(O)C(O)C(O)CO` (configuration not stated), the outcome was inactive.
With `N#Cc1cccc(N2C(=O)c3c(c(-c4ccccc4)c(-c4ccc(Sc5ccc(-c6c(-c7ccccc7)c7c(c(-c8ccccc8)c6-c6ccccc6)C(=O)N(c6cccc(C#N)c6)C7=O)cc5)cc4)c(-c4ccccc4)c3-c3ccccc3)C2=O)c1`, the EC50 is greater than 12 µM and the IC50 is greater than 12 µM.
Consider `CC#CCCC1(CC)CCCN(C(=O)OC(C)C)C1OCC` (configuration not stated), for which the EC50 was greater than 32.4 µM and the IC50 is greater than 32.4 µM.
Turning to `Cc1c(CCO)c(=O)n2c([nH]c3ccccc32)c1C#N`, the EC50 was greater than 107 µM and the 50% inhibitory concentration (IC50) came out at 85.1 µM.
On to `CCN(CC)CC(=N)N(CC)c1ccccc1`, for which the EC50 is greater than 417 µM and the IC50 came out at 195 µM.
On the same counts, the results for `CC(=O)OCCN1CCOC(O)(c2cccc(C(F)(F)F)c2)C1` (configuration not stated) are greater than 200 µM and 117 µM.
For `COC(=O)C1C(=O)CC(C)(O)C(C(=O)OC)C1c1ccc(N(C)C)cc1` (configuration not stated) the same measures were greater than 200 µM and greater than 200 µM.
For `CC(/C=C/C1OC(=O)C=CC1C)=C\C(C)C/C=C/C(C)=C/C(C)C(=O)C(C)C(O)C(C)C/C(C)=C/C(=O)O` (configuration not stated) the same measures were greater than 0.02 µM and 0.00631 µM.
Regarding `CC1=C(O)/C(=C/C(C)CCC/C(C)=C/C=C/C(C)CCCc2ccoc2)OC1=O` (configuration not stated), the outcome was inactive.
Turning to `O=C(O)OC12CCCCCC1C(=O)C1CCCCC12` (configuration not stated), the EC50 was greater than 200 µM and the IC50 is greater than 200 µM.
As for `O=C1N=C2SCCCN2C1(c1ccccc1)c1ccccc1`, the EC50 is greater than 200 µM and the IC50 was greater than 200 µM.
Regarding `COc1cc2oc3ccccc3c(=O)c2cc1CSc1ccccc1N`, the EC50 is greater than 14.5 µM and the IC50 stood at 11 µM.
On the same counts, the results for `O=S(=O)(O)CS(=O)(=O)O` are greater than 200 µM and greater than 200 µM.
For `O=C(CC(=O)N(C(=O)c1ccccc1)c1ccc(Cl)cc1)N/N=C\c1ccccc1O` the same measures were greater than 200 µM and greater than 200 µM.
For `C#CCN1CCC2=C(C1)c1c(O)cc(C(C)C(C)CCCCC)cc1OC2(C)C` (configuration not stated) the same measures were greater than 32.4 µM and 14.8 µM.
Take `COc1ccccc1-c1cc(=O)c2ccc(OC)c(OC)c2o1`: the EC50 was greater than 200 µM and the IC50 was determined as 33.1 µM.
For `CC(C)N1CC(=O)N2CSCC2C1=O` (configuration not stated) the same measures were greater than 200 µM and greater than 200 µM.
Turning to `CC(C)=CC(=O)OC1C2C(C)=CC(O)C(O)C2(C)C2C3(O)OCC24C(CC(=O)OC14)C(C)C3O` (configuration not stated), the EC50 is greater than 2 µM and the 50% inhibitory concentration (IC50) is 0.0912 µM.
On the same counts, the results for `CN1CCCC2[C@@H]3CCC4c5nonc5CC[C@]4(C)C3CC[C@@]21C` (some centres not stated) are greater than 55 µM and greater than 55 µM.
Turning to `CC1(C)CC(=O)C(/C=N/C(N)=S)=C(O)C1`, the EC50 is greater than 200 µM and the half-maximal inhibitory concentration (IC50) is greater than 200 µM.
For `C=CCC(NC(=O)C(CC(=O)OC(C)(C)C)NC(=O)OC(C)(C)C)C(=O)OC` (configuration not stated) (Boc-Asp(OtBu)-[AllylGly]-OMe; configuration not given here), the EC50 was greater than 200 µM and the IC50 is 97.7 µM.
Regarding `COc1ccc(/C=N/NC(N)=O)cc1`, the EC50 was greater than 186 µM and the IC50 is greater than 186 µM.
For `CCOC(=O)CN1CCSC1=NC#N`, the result was inactive.
Still for that read-out and setting: next, `CC12C(=O)N(CCN)C(=O)C1C1c3ccccc3C2c2ccccc21` (configuration not stated): “inactive”.
As for `Cc1cc(OCc2nnc3n2S(=O)(=O)c2ccccc2N3C)ccc1Cl`, the EC50 is greater than 200 µM and the IC50 was greater than 200 µM.
For the compound `Cn1nc(-c2ccccc2)c(C(=O)/C=C/c2ccc(F)cc2)c(N2CCOCC2)c1=O`, the EC50 is greater than 87.1 µM and the IC50 is greater than 87.1 µM.
With `Nc1nc(Cl)c2ncn(C3OC(CO)CC3F)c2n1` (configuration not stated), the EC50 was greater than 49 µM and the IC50 was greater than 49 µM.
For the compound `O=C(NC12CC3CC(NC(=O)c4ccccc4)(CC(C1)c1ccccc13)C2)c1ccccc1`, the EC50 is greater than 12 µM and the concentration for half-maximal inhibition (IC50) was greater than 12 µM.
As for `C=Cc1ccccn1`, the EC50 was greater than 200 µM and the IC50 was greater than 200 µM.
With `N=C(N)SCc1c2ccccc2c(CSC(=N)N)c2ccccc12`, the EC50 is greater than 20 µM and the 50% inhibitory concentration (IC50) came to 3.16 µM.
On the same counts, the results for `O=C(c1ccccc1)[C@H]1Nc2ccc(Cl)cc2C2c3ccccc3CC21` (some centres not stated) are greater than 14.5 µM and greater than 14.5 µM.
As to `Cc1ccc(-c2nnc(-c3nn(-c4ccccc4)c4nc5ccccc5nc34)o2)cc1`, the outcome was inactive.
On to `CN/N=C(\C)CC(=O)Nc1cccc(Cl)c1C`, for which the EC50 was greater than 14.8 µM and the 50% inhibitory concentration (IC50) is greater than 14.8 µM.
As for `ClCCC1OC(CCCl)OC(CCCl)O1` (configuration not stated), the EC50 was greater than 200 µM and the concentration for half-maximal inhibition (IC50) is greater than 200 µM.
Take `C1COC(N2CC3CCC(CC3)C2)=N1`: the EC50 is greater than 200 µM and the IC50 is greater than 200 µM.
Regarding `CCOC(=O)C(C(=O)OCC)c1ccc([N+](=O)[O-])o1`, the EC50 is greater than 132 µM and the concentration for half-maximal inhibition (IC50) is 1.86 µM.
With `O=[N+]([O-])c1ccc(-c2ccc(/C=N/n3c(-c4ccc(Cl)cc4)n[nH]c3=S)o2)cc1`, the EC50 was greater than 1.23 µM and the IC50 is greater than 1.23 µM.
Turning to `CCOC(=O)c1oc2cc(O)ccc2c(=O)c1-c1ccc(OC)c(OC)c1`, the EC50 was greater than 200 µM and the IC50 worked out at 51.3 µM.
Consider `N.N.N.N.[Co+3].[N-]=[N+]=[N-].[N-]=[N+]=[N-].[N-]=[N+]=[N-]`, for which the outcome was inactive.
With `Brc1ccc(C2CC(c3cccc4ccccc34)=Nc3ccccc3S2)cc1` (configuration not stated), the EC50 is greater than 11.7 µM and the IC50 was greater than 11.7 µM.
For `COc1cc2c(cc1Oc1ccc(OC)c3c1CC1c4c(cc(OC)c(OC)c4-3)CCN1C)CC1c3c(cc(OC)c(OC)c3-2)CCN1C` (configuration not stated), the result was inactive.
With `OCC1(CO)COC2(CCCCC2)N1`, the EC50 is greater than 1230 µM and the IC50 was greater than 1230 µM.
As for `CCOC(=O)c1sc2c(c1O)c(=O)n(-c1ccccc1)c(=S)n2-c1ccccc1`, the EC50 is greater than 17 µM and the IC50 was greater than 17 µM.
On to `C[N+](C)(C)CCCCCCCCCC[N+](C)(C)C`, for which the EC50 is greater than 603 µM and the IC50 was greater than 603 µM.
Consider `CCC/C(Cl)=N\OC(=O)Nc1ccc(Br)cc1`, for which the result was inactive.
Consider `O=C1Nc2cc([N+](=O)[O-])ccc2NC1/C(=N\Nc1ccccc1)C(O)c1cccc([N+](=O)[O-])c1` (configuration not stated), for which the EC50 was greater than 417 µM and the IC50 came to 47.9 µM.
For `NC1(CCNC(=O)c2ccccc2)CCN(C(=O)c2ccccc2)CC1` the same measures were greater than 200 µM and 145 µM.
On the same counts, the results for `COc1cc(C2c3cc(O)c(OC)cc3C[C@H]3C(=O)OCC23)ccc1O` (some centres not stated) are greater than 141 µM and greater than 141 µM.
Regarding `CC(C)=CC(=O)O[C@@H]1CC(C)(C)CC2C3=CCC4[C@]56CC[C@](O)(OC5)C(C)(C)C6CC[C@@]4(C)C3(C)CC[C@]21C(=O)O` (some centres not stated), the EC50 was greater than 200 µM and the IC50 was determined as 10.2 µM.
For `COC1=CC(=O)C2C(C1=O)C(c1ccc(Cl)cc1)[C@@H]2C` (some centres not stated) the same measures were greater than 170 µM and 28.2 µM.
As to `COC(=O)C(Cc1ccccc1)NC(=O)C(CNC(=O)OCc1ccccc1)C(=O)OCc1ccccc1` (configuration not stated), the EC50 is greater than 200 µM; the IC50 is > 200 µM and 148 µM.
With `O=c1oc2c(c(=O)n1-c1ccccc1)CC1(CCCCC1)C2`, the EC50 is greater than 200 µM and the IC50 is greater than 200 µM.
